US20250066363A1, “Bicyclic DGK Inhibitors” (Incyte Corporation, priority 2023, published 2025)

Tests used:
DGKα = DGKα (Homo sapiens (Human), UniProt P23743); test: In vitro DGKα inhibition assay (ADP-Glo); type: biochemical; details: first column of Table A
Experimental: (§1) The DGKα and DGKζ biochemical reactions were performed using His-tagged human recombinant enzymes (Signal Chem, DGKα, #D21-10BH; DGKζ, #D30-1OH)) and DLG (Dilauroyl-sn-glycerol) lipid substrate (Signal Chem, #D430-59). ADP-Glo assay was performed using ADP-Glo™ kinase Assay kit (Promega, #V9104). The reactions were carried out in assay buffer containing 40 mM Tris, pH 7.5, 0.1% CHAPS, 0.1% Prionex, 40 mM NaCl, 5 mM MgCl2, 1 mM CaCl2, and 1 mM DTT. DGKα reactions contained 0.1 nM DGKα, 50 μM ATP, and 20 μM DLG. And DGKζ reactions contained 0.4 nM DGKζ, 30 μM ATP, and 20 μM DLG.
(§2) For compound inhibition studies, 40 nL test compound in DMSO was added to wells of white polystyrene plates in 384-well (Greiner, #784075) or 1536-well format (Greiner, #782075). Compounds were added with top concentration of 2 mM with 11 point, 3-fold dilution series. Enzyme solution (contains 2× DGK enzyme concentration in 1× assay buffer) was added to the plate in 2 μL/well volume, followed by 2 μL/well of substrate solution (contains 2× concentration of ATP and DLG substrate in 1× assay buffer). Plates were then centrifuged for 1 min at 1200 RPM and sealed or lidded. For 4 μL reaction volume, test compounds were therefore diluted 100× to final top concentration of 20 μM. After 90 minute incubation, reactions were quenched by addition of 2 μL/well Promega ADP-Glo Reagent, followed by centrifugation and lidding. After 60 min incubation, 2 μL/well Promega Kinase Detection Reagent was added, plates centrifuged, and incubated for 30 min. Plates were then read using Luminescence method on BMG PHERAstar FSX plate reader. Percent inhibition was calculated and IC50s were determined using 4-parameter fit in Genedata Screener. Labcyte Echo acoustic dispenser was used for compound addition, and Formulatrix Tempest liquid handler was used for all reagent dispenses.

DGKζ = DGKζ (Homo sapiens (Human), UniProt Q13574); test: In vitro DGKζ inhibition assay (ADP-Glo); type: biochemical; details: second column of Table A, head printed DGKα, presumably DGKζ; His-tagged human recombinant DGKζ 0.4 nM, 30 μM ATP, 20 μM DLG
Chain of DGKζ (Q13574 whole entry): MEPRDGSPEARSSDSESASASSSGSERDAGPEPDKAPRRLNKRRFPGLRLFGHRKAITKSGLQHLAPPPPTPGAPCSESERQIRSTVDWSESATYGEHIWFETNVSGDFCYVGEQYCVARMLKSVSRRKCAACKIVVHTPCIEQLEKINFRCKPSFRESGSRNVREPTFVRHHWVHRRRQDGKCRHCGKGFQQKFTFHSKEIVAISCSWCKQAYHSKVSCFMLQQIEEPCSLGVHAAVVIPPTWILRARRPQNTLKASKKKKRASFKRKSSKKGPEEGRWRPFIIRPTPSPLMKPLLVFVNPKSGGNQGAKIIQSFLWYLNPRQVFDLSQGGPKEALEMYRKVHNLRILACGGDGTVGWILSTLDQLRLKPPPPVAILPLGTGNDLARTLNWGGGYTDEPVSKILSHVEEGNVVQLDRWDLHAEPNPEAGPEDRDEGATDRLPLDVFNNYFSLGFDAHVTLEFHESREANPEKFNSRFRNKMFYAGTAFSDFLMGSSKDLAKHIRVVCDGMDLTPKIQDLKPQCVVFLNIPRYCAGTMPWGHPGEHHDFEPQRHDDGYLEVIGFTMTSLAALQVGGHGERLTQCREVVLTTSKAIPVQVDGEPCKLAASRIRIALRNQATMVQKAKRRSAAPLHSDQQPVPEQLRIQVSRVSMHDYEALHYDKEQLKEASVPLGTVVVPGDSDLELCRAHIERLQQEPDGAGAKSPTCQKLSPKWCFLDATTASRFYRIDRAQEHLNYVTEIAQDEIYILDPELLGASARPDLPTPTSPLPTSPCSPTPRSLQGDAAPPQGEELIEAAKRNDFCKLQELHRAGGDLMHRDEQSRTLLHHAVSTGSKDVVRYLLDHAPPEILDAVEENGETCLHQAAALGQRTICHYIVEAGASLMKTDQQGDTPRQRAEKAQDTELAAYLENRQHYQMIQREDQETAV
Experimental: as §1, §2

[1] = His-tagged human recombinant DGKα 0.1 nM, 50 μM ATP, 20 μM DLG

Chain of DGKα (P23743 whole entry): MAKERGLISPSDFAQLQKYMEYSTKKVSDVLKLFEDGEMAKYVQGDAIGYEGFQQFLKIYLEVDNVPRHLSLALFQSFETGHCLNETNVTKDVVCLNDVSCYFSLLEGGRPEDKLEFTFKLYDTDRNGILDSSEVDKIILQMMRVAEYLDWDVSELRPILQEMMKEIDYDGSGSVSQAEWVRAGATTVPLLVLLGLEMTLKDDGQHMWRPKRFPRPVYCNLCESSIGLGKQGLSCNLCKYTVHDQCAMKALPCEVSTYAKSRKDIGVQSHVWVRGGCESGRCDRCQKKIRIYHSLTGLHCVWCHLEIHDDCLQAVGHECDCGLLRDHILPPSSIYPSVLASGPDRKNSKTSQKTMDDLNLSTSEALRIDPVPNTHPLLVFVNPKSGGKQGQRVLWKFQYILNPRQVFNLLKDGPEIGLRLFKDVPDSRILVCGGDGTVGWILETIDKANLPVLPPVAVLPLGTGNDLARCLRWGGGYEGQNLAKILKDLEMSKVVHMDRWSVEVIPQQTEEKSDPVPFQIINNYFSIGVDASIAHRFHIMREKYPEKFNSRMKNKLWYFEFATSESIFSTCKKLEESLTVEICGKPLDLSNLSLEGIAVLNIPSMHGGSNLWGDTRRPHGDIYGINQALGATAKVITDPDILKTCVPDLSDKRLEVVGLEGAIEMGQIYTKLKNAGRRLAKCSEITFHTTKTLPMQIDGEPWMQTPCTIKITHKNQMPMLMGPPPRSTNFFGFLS

Structure (SMILES)	IC50 (DGKα; [1])	IC50 (DGKζ)	IC50 (DGKα; cell prints a figure instead of a class symbol (possibly a misprint of +))
CC[C@@H]1CN(c2nc(=O)n(C)c3c2nnn3C[C@H]2CCCO2)[C@@H](C)CN1[C@H](CC)c1ccc(C(F)(F)F)cc1 [Example 31, 7-((2S,5R)-5-ethyl-2-methyl-4-((R)-1-(4-(trifluoromethyl)phenyl)propyl)piperazin-1-yl)-4-methyl-3-(((R)-tetrahydrofuran-2-yl)methyl)-3,4-dihydro-5H-[1,2,3]triazolo[4,5-d]pyrimidin-5-one]	≤ 0.01 µM	≤ 0.01 µM	–
CC(C)CC(c1ccc(Cl)cc1)N1C[C@H](C)N(c2nc(=O)n(C)c3c2nnn3C[C@@H]2CCCO2)C[C@H]1C (single isomer, unassigned) [Example 17]	≤ 0.01 µM	≤ 0.01 µM	–
CC[C@@H]1CN(c2nc(=O)n(C)c3c2nnn3C[C@H]2CCCO2)[C@@H](C)CN1[C@@H](CC)c1ccc(Cl)cc1 [Example 26, 7-((2S,5R)-4-((S)-1-(4-Chlorophenyl)propyl)-5-ethyl-2-methylpiperazin-1-yl)-4-methyl-3-(((R)-tetrahydrofuran-2-yl)methyl)-3,4-dihydro-5H-[1,2,3]triazolo[4,5-d]pyrimidin-5-one]	≤ 0.01 µM	≤ 0.01 µM	–
Cc1nc2c(N3C[C@@H](C)N([C@H](c4ccc(C(F)(F)F)cc4F)C(C)C)C[C@@H]3C)nc(=O)n(C)c2n1C[C@@H]1CCCO1 [Example 51, 6-((2S,5R)-4-((S)-1-(2-Fluoro-4-(trifluoromethyl)phenyl)-2-methylpropyl)-2,5-dimethylpiperazin-1-yl)-3,8-dimethyl-9-(((S)-tetrahydrofuran-2-yl)methyl)-3,9-dihydro-2H-purin-2-one]	≤ 0.01 µM	≤ 0.01 µM	–
Cc1nc2c(N3C[C@@H](C)N(C(c4ccc(C(F)(F)F)cc4)C4CC(F)(F)C4)C[C@@H]3C)cc(=O)n(C)c2n1C[C@@H]1CCCO1 (stereo partly drawn) [Example 40, 7-((2S,5R)-4-((3,3-Difluorocyclobutyl)(4-(trifluoromethyl)phenyl)methyl)-2,5-dimethylpiperazin-1-yl)-2,4-dimethyl-3-(((S)-tetrahydrofuran-2-yl)methyl)-3,4-dihydro-5H-imidazo[4,5-b]pyridin-5-one]	≤ 0.1 µM	≤ 0.1 µM	–
CC[C@@H]1CN(c2nc(=O)n(C)c3c2nc(C)n3C[C@@H]2CCCO2)[C@@H](C)CN1[C@@H](CC)c1ccc(C(F)(F)F)cc1 [Example 28, 6-((2S,5R)-5-Ethyl-2-methyl-4-((S)-1-(4-(trifluoromethyl)phenyl)propyl)piperazin-1-yl)-3,8-dimethyl-9-(((S)-tetrahydrofuran-2-yl)methyl)-3,9-dihydro-2H-purin-2-one]	≤ 0.01 µM	≤ 0.01 µM	–
Cc1nc2c(N3C[C@@H](C)N(C(c4ccc(F)cc4)c4ccc(F)cc4)C[C@@H]3C)nc(=O)n(C)c2n1C[C@@H]1CCCO1 [Example 2, 6-((2S,5R)-4-(Bis(4-fluorophenyl)methyl)-2,5-dimethylpiperazin-1-yl)-3,8-dimethyl-9-(((S)-tetrahydrofuran-2-yl)methyl)-3,9-dihydro-2H-purin-2-one]	≤ 0.01 µM	≤ 0.01 µM	–
CC[C@@H]1CN(c2nc(=O)n(C)c3c2nnn3C[C@H]2CCCO2)[C@@H](C)CN1[C@@H](CC)c1ccc(C(F)(F)F)cc1 [Example 30, 7-((2S,5R)-5-Ethyl-2-methyl-4-((S)-1-(4-(trifluoromethyl)phenyl)propyl)piperazin-1-yl)-4-methyl-3-(((R)-tetrahydrofuran-2-yl)methyl)-3,4-dihydro-5H-[1,2,3]triazolo[4,5-d]pyrimidin-5-one]	≤ 0.01 µM	≤ 0.01 µM	–
Cc1nc2c(N3C[C@@H](CO)N(C(c4ccc(F)cc4)c4ccc(F)cc4)C[C@@H]3C)nc(=O)n(C)c2n1C[C@@H]1CCCO1 [Example 3, 6-((2S,5S)-4-(Bis(4-fluorophenyl)methyl)-5-(hydroxymethyl)-2-methylpiperazin-1-yl)-3,8-dimethyl-9-(((S)-tetrahydrofuran-2-yl)methyl)-3,9-dihydro-2H-purin-2-one]	≤ 0.01 µM	≤ 0.01 µM	–
C[C@@H]1CN(c2nc(=O)n(C)c3c2c(F)cn3C[C@@H]2CCCO2)[C@@H](C)CN1C(c1ccc(F)cc1)c1ccc(F)cc1 [Example 8, 4-((2S,5R)-4-(Bis(4-fluorophenyl)methyl)-2,5-dimethylpiperazin-1-yl)-5-fluoro-1-methyl-7-(((S)-tetrahydrofuran-2-yl)methyl)-1,7-dihydro-2H-pyrrolo[2,3-d]pyrimidin-2-one]	≤ 0.1 µM	≤ 0.1 µM	–
CC[C@@H]1CN(c2nc(=O)n(C)c3c2nc(C)n3C[C@@H]2CCCO2)[C@@H](C)CN1[C@H](c1ccc(C(F)(F)F)cc1)C(C)C [Example 59, 6-((2S,5R)-5-Ethyl-2-methyl-4-((S)-2-methyl-1-(4-(trifluoromethyl)phenyl)propyl)piperazin-1-yl)-3,8-dimethyl-9-(((S)-tetrahydrofuran-2-yl)methyl)-3,9-dihydro-2H-purin-2-one]	≤ 0.01 µM	≤ 0.01 µM	–
CC(C)[C@H](c1ccc(Cl)cc1)N1C[C@H](C)N(c2nc(=O)n(C)c3c2ncn3CC2(O)CCCC2)C[C@H]1C [Example 58, 6-((2S,5R)-4-((R)-1-(4-chlorophenyl)-2-methylpropyl)-2,5-dimethylpiperazin-1-yl)-9-((1-hydroxycyclopentyl)methyl)-3-methyl-3,9-dihydro-2H-purin-2-one]	≤ 0.01 µM	≤ 0.01 µM	–
Cc1nc2c(N3C[C@@H](C)N(C(c4ccc(C(F)(F)F)cc4)[C@H]4CC4(F)F)C[C@@H]3C)nc(=O)n(C)c2n1C[C@@H]1CCCO1 (single isomer, unassigned) [Example 21]	–	≤ 0.01 µM	–

Continued, values first:

IC50 (DGKα; [1])	IC50 (DGKζ)	IC50 (DGKα; cell prints a figure instead of a class symbol (possibly a misprint of +))	Structure (SMILES)
≤ 0.01 µM	≤ 0.01 µM	–	Cc1nc2c(N3C[C@@H](C(F)F)N(C(c4ccc(C(F)(F)F)cc4)C4CC(F)(F)C4)C[C@@H]3C)nc(=O)n(C)c2n1C[C@@H]1CCCO1 (single isomer, unassigned) [Example 42]
–	≤ 0.01 µM	0.001 µM	Cc1nc2c(N3C[C@@H](CO)N(C(c4ccc(C(F)(F)F)cc4)C4CC(F)(F)C4)C[C@@H]3C)nc(=O)n(C)c2n1C[C@@H]1CCCO1 (stereo partly drawn) [Example 41, 6-((2S,5S)-4-((3,3-Difluorocyclobutyl)(4-(trifluoromethyl)phenyl)methyl)-5-(hydroxymethyl)-2-methylpiperazin-1-yl)-3,8-dimethyl-9-(((S)-tetrahydrofuran-2-yl)methyl)-3,9-dihydro-2H-purin-2-one]
≤ 0.01 µM	≤ 0.1 µM	–	CC[C@@H]1CN(c2nc(=O)[nH]c3c2nc(C)n3C[C@@H]2CCCO2)[C@@H](C)CN1C(c1ccc(Cl)cc1)C1CC(F)(F)C1 (stereo partly drawn) [Example 36, 6-((2S,5R)-4-((4-Chlorophenyl)(3,3-difluorocyclobutyl)methyl)-5-ethyl-2-methylpiperazin-1-yl)-8-methyl-9-(((S)-tetrahydrofuran-2-yl)methyl)-3,9-dihydro-2H-purin-2-one]
≤ 0.01 µM	≤ 0.01 µM	–	CC[C@@H]1CN(c2nc(=O)n(C)c3c2nc(C)n3C[C@H]2OCC[C@@H]2O)[C@@H](C)CN1C(c1ccc(Cl)cc1)C1CC(F)(F)C1 (stereo partly drawn) [Example 65, 6-((2S,5R)-4-((4-Chlorophenyl)(3,3-difluorocyclobutyl)methyl)-5-ethyl-2-methylpiperazin-1-yl)-9-(((2R,3S)-3-hydroxytetrahydrofuran-2-yl)methyl)-3,8-dimethyl-3,9-dihydro-2H-purin-2-one]
≤ 0.01 µM	≤ 0.01 µM	–	CC[C@@H]1CN(c2nc(=O)n(C)c3c2nc(C)n3C[C@@H]2CCCO2)[C@@H](C)CN1[C@H](C)c1ccc(C(F)(F)F)cc1 [Example 62, 6-((2S,5R)-5-ethyl-2-methyl-4-((R)-1-(4-(trifluoromethyl)phenyl)ethyl)piperazin-1-yl)-3,8-dimethyl-9-(((S)-tetrahydrofuran-2-yl)methyl)-3,9-dihydro-2H-purin-2-one]
≤ 0.01 µM	≤ 0.01 µM	–	Cc1nc2c(N3C[C@@H](C)N(C(c4ccc(C(F)(F)F)cc4)C4CC(F)(F)C4)C[C@@H]3C)nc(=O)n(C)c2n1C[C@@H]1CCCO1 (single isomer, unassigned) [Example 15]
≤ 0.01 µM	≤ 0.01 µM	–	CC[C@@H]1CN(c2nc(=O)n(C)c3c2nc(C)n3C[C@H]2OCC[C@H]2O)[C@@H](C)CN1[C@H](CC)c1ccc(C(F)(F)F)cc1 [Example 72, 6-((2S,5R)-5-ethyl-2-methyl-4-((R)-1-(4-(trifluoromethyl)phenyl)propyl)piperazin-1-yl)-9-(((2R,3R)-3-hydroxytetrahydrofuran-2-yl)methyl)-3,8-dimethyl-3,9-dihydro-2H-purin-2-one]
